Reference: PubChem BioAssay AID1259411 (Chemical Carcinogenesis Research Information System (CCRIS), 2018)
Activity calls are given as the source filed them. How the calls were made is not given here.

System: rodent carcinogenicity bioassays, tumor incidence
Test: CCRIS carcinogenicity studies
How it was run: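 Archive of carcinogenicity, mutagenicity, tumor promotion and tumor inhibition results drawn from journals, NCI reports and other sources, expert-reviewed; covers 1985-2011 and is no longer updated.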

SMILES: CC(C)=CCC/C(C)=C/C=O
- carcinogen call (Species: MOUSE, Strain/Sex: B3C3F1/FEMALE (50), Route: ORAL, Dose: 0, 500, 1000, 2000 PPM IN MICROCAPSULES IN THE DIET FOR 2 YR (STUDY DURATION: 2 YR), Dose: 0, 500, 1000, 2000 PPM IN MICROCAPSULES IN THE DIET FOR 2 YR (STUDY DURATION: 2 YR), Tumor Site: Type of Lesion: LYMPHATIC SYSTEM: MALIGNANT LYMPHOMA): equivocal
- carcinogen call (Species: MOUSE, Strain/Sex: B6C3F1/MALE (50), Route: ORAL, Dose: 0, 500, 1000, 2000 PPM IN MICROCAPSULES IN THE DIET FOR 2 YR (STUDY DURATION: 2 YR), Dose: 0, 500, 1000, 2000 PPM IN MICROCAPSULES IN THE DIET FOR 2 YR (STUDY DURATION: 2 YR)): inactive; negative
- carcinogen call (Species: RAT, Strain/Sex: F344/FEMALE, Route: ORAL, Dose: 0, 1000, 2000, 4000 PPM IN MICROCAPSULES IN THE DIET FOR 2 YR (STUDY DURATION: 2 YR), Dose: 0, 1000, 2000, 4000 PPM IN MICROCAPSULES IN THE DIET FOR 2 YR (STUDY DURATION: 2 YR)): inactive; negative
- carcinogen call (Species: RAT, Strain/Sex: F344/MALE, Route: ORAL, Dose: 0, 1000, 2000, 4000 PPM IN MICROCAPSULES IN THE DIET FOR 2 YR (STUDY DURATION: 2 YR), Dose: 0, 1000, 2000, 4000 PPM IN MICROCAPSULES IN THE DIET FOR 2 YR (STUDY DURATION: 2 YR)): inactive; negative

SMILES: c1cc(OCC2CO2)cc(OCC2CO2)c1 (centres undefined)
- carcinogen call (Species: MOUSE, Strain/Sex: B6C3F1/FEMALE, Route: GAVAGE, Dose: 0, 50, 100 MG/KG BW IN CORN OIL 5 D/WK FOR 103 WK (STUDY DURATION: 105 WK), Dose: 0, 50, 100 MG/KG BW IN CORN OIL 5 D/WK FOR 103 WK (STUDY DURATION: 105 WK), Tumor Site: Type of Lesion: FORESTOMACH: SQUAMOUS CELL CARCINOMA, SQUAMOUS CELL PAPILLOMA): active; positive
- carcinogen call (Species: MOUSE, Strain/Sex: B6C3F1/FEMALE, Route: GAVAGE, Dose: 0, 50, 100 MG/KG IN CORN OIL 5 D/WK FOR 103 WK (STUDY DURATION: 104-105 WK), Dose: 0, 50, 100 MG/KG IN CORN OIL 5 D/WK FOR 103 WK (STUDY DURATION: 104-105 WK), Tumor Site: Type of Lesion: FORESTOMACH: SQUAMOUS CELL PAPILLOMA, SQUAMOUS CELL CARCINOMA): active; positive
- carcinogen call (Species: MOUSE, Strain/Sex: B6C3F1/MALE, Route: GAVAGE, Dose: 0, 50, 100 MG/KG BW IN CORN OIL 5 D/WK FOR 103 WK (STUDY DURATION: 105 WK), Dose: 0, 50, 100 MG/KG BW IN CORN OIL 5 D/WK FOR 103 WK (STUDY DURATION: 105 WK), Tumor Site: Type of Lesion: FORESTOMACH: SQUAMOUS CELL CARCINOMA, SQUAMOUS CELL PAPILLOMA): active; positive
- carcinogen call (Species: MOUSE, Strain/Sex: B6C3F1/MALE, Route: GAVAGE, Dose: 0, 50, 100 MG/KG IN CORN OIL 5 D/WK FOR 103 WK (STUDY DURATION: 104-105 WK), Dose: 0, 50, 100 MG/KG IN CORN OIL 5 D/WK FOR 103 WK (STUDY DURATION: 104-105 WK), Tumor Site: Type of Lesion: FORESTOMACH: SQUAMOUS CELL PAPILLOMA, SQUAMOUS CELL CARCINOMA): active; positive
- carcinogen call (Species: RAT, Strain/Sex: F344/FEMALE, Route: GAVAGE, Dose: 0, 12, 25, 50 MG/KG BW IN CORN OIL 5 D/WK FOR 103 WK (STUDY DURATION: 105 WK), Dose: 0, 12, 25, 50 MG/KG BW IN CORN OIL 5 D/WK FOR 103 WK (STUDY DURATION: 105 WK), Tumor Site: Type of Lesion: FORESTOMACH: SQUAMOUS CELL CARCINOMA, SQUAMOUS CELL PAPILLOMA): active; positive
- carcinogen call (Species: RAT, Strain/Sex: F344/FEMALE, Route: GAVAGE, Dose: 0, 12, 25, 50 MG/KG IN CORN OIL 5 D/WK FOR 103 WK (STUDY DURATION: 104-105 WK), Dose: 0, 12, 25, 50 MG/KG IN CORN OIL 5 D/WK FOR 103 WK (STUDY DURATION: 104-105 WK), Tumor Site: Type of Lesion: FORESTOMACH: SQUAMOUS CELL PAPILLOMA, SQUAMOUS CELL CARCINOMA): active; positive
- carcinogen call (Species: RAT, Strain/Sex: F344/MALE, Route: GAVAGE, Dose: 0, 12, 25, 50 MG/KG IN CORN OIL 5 D/WK FOR 103 WK (STUDY DURATION: 104-105 WK), Dose: 0, 12, 25, 50 MG/KG IN CORN OIL 5 D/WK FOR 103 WK (STUDY DURATION: 104-105 WK), Tumor Site: Type of Lesion: FORESTOMACH: SQUAMOUS CELL PAPILLOMA, SQUAMOUS CELL CARCINOMA): active; positive
- carcinogen call (Species: RAT, Strain/Sex: F344/MALE, Route: GAVAGE, Dose: 0, 12, 25, 50 MG/KG IN CORN OIL 5 D/WK FOR 103 WK (STUDY DURATION: 105 WK), Dose: 0, 12, 25, 50 MG/KG IN CORN OIL 5 D/WK FOR 103 WK (STUDY DURATION: 105 WK), Tumor Site: Type of Lesion: FORESTOMACH: SQUAMOUS CELL CARCINOMA, SQUAMOUS CELL PAPILLOMA): active; positive

SMILES: C[C@H]1O[C@@H]1Cl
- carcinogen call (Species: MOUSE, Strain/Sex: ICR/FEMALE, Route: DERMAL, Dose: 10 MG IN 0.1 ML ACETONE 3/WK FOR LIFE, Tumor Site: Type of Lesion: INTEGUMENTARY SYSTEM (SKIN): PAPILLOMA, SQUAMOUS CELL CARCINOMA): active; positive
- carcinogen call (Species: MOUSE, Strain/Sex: ICR/FEMALE, Route: SUBCUTANEOUS, Dose: 1 MG IN 0.05 ML TRICAPRYLIN 1/WK FOR LIFE, Tumor Site: Type of Lesion: INJECTION SITE: FIBROSARCOMA, CARCINOMA): active; positive

SMILES: O[C@@H]1[C@@H]2O[C@@H]2c2c(cc3ccc4cccc5ccc2c3c45)[C@H]1O
- carcinogen call (Species: MOUSE, Strain/Sex: ICR/FEMALE, Route: INTRAPERITONEAL, Dose: 0, 25 NMOL (TOTAL DOSE) ADMINISTERED IN DOSES OF 1/7, 2/7, AND 4/7 ON DAYS 1, 7, AND 15 OF LIFE, RESPECTIVELY (STUDY DUR, Tumor Site: Type of Lesion: LUNG: TUMOR): active; positive
- carcinogen call (Species: MOUSE, Strain/Sex: ICR/FEMALE, Route: INTRAPERITONEAL, Dose: 0;25 NMOL TOTAL DOSE INJECTED IN DOSES OF 1/7 ON DAY 1, 2.7 ON DAY 8, AND 4/7 ON DAY 15 OF LIFE (STUDY DURATION: 35 WK), Tumor Site: Type of Lesion: LUNG: TUMOR): active; positive
- carcinogen call (Species: MOUSE, Strain/Sex: ICR/MALE, Route: INTRAPERITONEAL, Dose: 0, 25 NMOL TOTAL DOSE INJECTED IN DOSES OF 1/7 ON DAY 1, 2/7 ON DAY 8, AND 4/7 ON DAY 15 OF LIFE (STUDY DURATION: 35 WK), Tumor Site: Type of Lesion: LUNG:TUMOR): active; positive
- carcinogen call (Species: MOUSE, Strain/Sex: ICR/MALE, Route: INTRAPERITONEAL, Dose: 0, 25 NMOL (TOTAL DOSE) ADMINISTERED IN DOSES OF 1/7, 2/7, AND 4/7 ON DAYS 1, 7, AND 15 OF LIFE, RESPECTIVELY (STUDY DUR, Tumor Site: Type of Lesion: LUNG: TUMOR): active; positive
- carcinogen call (Species: RAT, Strain/Sex: STRAIN-CD/FEMALE, Route: INJECTION, Dose: 0, 2.04 UMOL IN 0.1 ML DMSO 3 INJECTIONS INTO MAMMARY TISSUE BENEATH THE 3 LEFT THORACIC NIPPLES ON THE NEXT DAY PROCEDU, Tumor Site: Type of Lesion: MAMMARY GLAND: TUMOR): active; positive
- carcinogen call (Species: RAT, Strain/Sex: STRAIN-CD/FEMALE, Route: INJECTION, Dose: 0, 2.04 UMOL IN 0.1 ML DMSO INJECTED BENEATH EACH THE THREE LEFT THORACIC NIPPLES THEN ON THE NEXT DAY BENEATH EACH OF T, Tumor Site: Type of Lesion: MAMMARY GLAND: TUMOR): active; positive

SMILES: CC(C)O
- carcinogen call (Species: MOUSE, Strain/Sex: CD-1/FEMALE, Route: INHALATION, Dose: 0, 500, 2500, 5000 PPM 6 HR/D 5 D/WK FOR 78 WK (STUDY DURATION: 78 WK), Dose: 0, 500, 2500, 5000 PPM 6 HR/D 5 D/WK FOR 78 WK (STUDY DURATION: 78 WK)): inactive; negative
- carcinogen call (Species: MOUSE, Strain/Sex: CD-1/MALE, Route: INHALATION, Dose: 0, 500, 2500, 5000 PPM 6 HR/D 5 D/WK FOR 78 WK (STUDY DURATION: 78 WK), Dose: 0, 500, 2500, 5000 PPM 6 HR/D 5 D/WK FOR 78 WK (STUDY DURATION: 78 WK)): inactive; negative
- carcinogen call (Species: RAT, Strain/Sex: F344/FEMALE, Route: INHALATION, Dose: 0, 500, 2500, 5000 PPM 6 HR/D 5 D/WK FOR 104 WK (STUDY DURATION: 104 WK), Dose: 0, 500, 2500, 5000 PPM 6 HR/D 5 D/WK FOR 104 WK (STUDY DURATION: 104 WK)): inactive; negative
- carcinogen call (Species: RAT, Strain/Sex: F344/MALE, Route: INHALATION, Dose: 0, 500, 2500, 5000 PPM 6 HR/D 5 D/WK FOR 104 WK (STUDY DURATION: 104 WK), Dose: 0, 500, 2500, 5000 PPM 6 HR/D 5 D/WK FOR 104 WK (STUDY DURATION: 104 WK)): inactive; negative
